Measurements: the supplement of paper PMC10307832

What was measured:
Assay in all cases: relative viability (nuclei count vs DMSO), 5 days (fraction); higher = more cells survive
RU-SKI 43 + Phenformin = compound: CC[C@@H](C)CNCC(=O)N1CCC2=C([C@@H]1COC3=CC=CC(=C3)C)C=CS2 [RU-SKI 43] + N=C(N)NC(=N)NCCc1ccccc1 [Phenformin] (partner 250 µM)
Procedure, shortened: (§1)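 Lung cancer cell lines, seeded in 1536-well plates, were treated the following day by pin tool with a single drug or with five library-drug doses (not always all listed) in √10 steps on top of a fixed anchor-drug dose. Cells were fixed and nuclei stained in one step after 5 days, and nuclei were counted. Relative viability is the nuclei count for treated wells divided by that for vehicle wells, reported as medians of duplicate plates.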

RU-SKI 43 + Decitabine = compound: CC[C@@H](C)CNCC(=O)N1CCC2=C([C@@H]1COC3=CC=CC(=C3)C)C=CS2 [RU-SKI 43] + Nc1ncn([C@H]2C[C@H](O)[C@@H](CO)O2)c(=O)n1 [Decitabine] (partner 2 µM)
Procedure, shortened: as §1

Irinotecan + Alpelisib = compound: CCc1c2c(nc3ccc(OC(=O)N4CCC(N5CCCCC5)CC4)cc13)-c1cc3c(c(=O)n1C2)COC(=O)[C@]3(O)CC [Irinotecan] + Cc1nc(NC(=O)N2CCC[C@H]2C(N)=O)sc1-c1ccnc(C(C)(C)C(F)(F)F)c1 [Alpelisib] (partner 2 µM)
Procedure, shortened: as §1

MK-8033 + Lapatinib = compound: Cn1cc(-c2cnc3ccc4ccc(CS(=O)(=O)NCc5ccccn5)cc4c(=O)c3c2)cn1 [MK-8033] + CS(=O)(=O)CCNCc1ccc(-c2ccc3ncnc(Nc4ccc(OCc5cccc(F)c5)c(Cl)c4)c3c2)o1 [Lapatinib] (partner 2 µM)
Procedure, shortened: as §1

PC-14
relative viability (RU-SKI 43 + Phenformin; first compound 0.1 µM): 0.646
relative viability (RU-SKI 43 + Phenformin; first compound 0.3162 µM): 0.468
relative viability (RU-SKI 43 + Phenformin; first compound 1 µM): 0.841
relative viability (RU-SKI 43 + Phenformin; first compound 3.162 µM): 0.457
relative viability (RU-SKI 43 + Phenformin; first compound 10 µM): 0.651
relative viability (RU-SKI 43 + Decitabine; first compound 0.1 µM): 0.248
relative viability (RU-SKI 43 + Decitabine; first compound 0.3162 µM): 0.219
relative viability (RU-SKI 43 + Decitabine; first compound 1 µM): 0.225
relative viability (RU-SKI 43 + Decitabine; first compound 3.162 µM): 0.218
relative viability (RU-SKI 43 + Decitabine; first compound 10 µM): 0.203
relative viability (Irinotecan + Alpelisib; first compound 0.6325 µM): 0.925
relative viability (Irinotecan + Alpelisib; first compound 2 µM): 0.9
relative viability (Irinotecan + Alpelisib; first compound 6.325 µM): 0.465
relative viability (Irinotecan + Alpelisib; first compound 20 µM): 0.184
relative viability (MK-8033 + Lapatinib; first compound 0.02 µM): 0.338
relative viability (MK-8033 + Lapatinib; first compound 0.06325 µM): 0.25
relative viability (MK-8033 + Lapatinib; first compound 0.2 µM): 0.305
relative viability (MK-8033 + Lapatinib; first compound 0.6325 µM): 0.31
relative viability (MK-8033 + Lapatinib; first compound 2 µM): 0.294

ChaGo-K-1
relative viability (RU-SKI 43 + Phenformin; first compound 0.1 µM): 0.474
relative viability (RU-SKI 43 + Phenformin; first compound 0.3162 µM): 0.491
relative viability (RU-SKI 43 + Phenformin; first compound 1 µM): 0.548
relative viability (RU-SKI 43 + Phenformin; first compound 3.162 µM): 0.479
relative viability (RU-SKI 43 + Phenformin; first compound 10 µM): 0.488
relative viability (RU-SKI 43 + Decitabine; first compound 0.1 µM): 0.543
relative viability (RU-SKI 43 + Decitabine; first compound 0.3162 µM): 0.559
relative viability (RU-SKI 43 + Decitabine; first compound 1 µM): 0.518
relative viability (RU-SKI 43 + Decitabine; first compound 3.162 µM): 0.551
relative viability (RU-SKI 43 + Decitabine; first compound 10 µM): 0.501

NCI-H650
relative viability (RU-SKI 43 + Phenformin; first compound 0.1 µM): 0.479
relative viability (RU-SKI 43 + Phenformin; first compound 0.3162 µM): 0.37
relative viability (RU-SKI 43 + Phenformin; first compound 1 µM): 0.509
relative viability (RU-SKI 43 + Phenformin; first compound 3.162 µM): 0.425
relative viability (RU-SKI 43 + Phenformin; first compound 10 µM): 0.475
relative viability (RU-SKI 43 + Decitabine; first compound 0.1 µM): 0.281
relative viability (RU-SKI 43 + Decitabine; first compound 0.3162 µM): 0.335
relative viability (RU-SKI 43 + Decitabine; first compound 3.162 µM): 0.311
relative viability (RU-SKI 43 + Decitabine; first compound 10 µM): 0.312
relative viability (Irinotecan + Alpelisib; first compound 0.6325 µM): 0.889
relative viability (Irinotecan + Alpelisib; first compound 2 µM): 0.432
relative viability (Irinotecan + Alpelisib; first compound 6.325 µM): 0.229
relative viability (Irinotecan + Alpelisib; first compound 20 µM): 0.323
relative viability (MK-8033 + Lapatinib; first compound 0.02 µM): 0.759
relative viability (MK-8033 + Lapatinib; first compound 0.06325 µM): 0.966
relative viability (MK-8033 + Lapatinib; first compound 0.2 µM): 0.838
relative viability (MK-8033 + Lapatinib; first compound 0.6325 µM): 0.845
relative viability (MK-8033 + Lapatinib; first compound 2 µM): 0.921

EBC-1
relative viability (Irinotecan + Alpelisib; first compound 0.6325 µM): 0.621
relative viability (Irinotecan + Alpelisib; first compound 2 µM): 0.387
relative viability (Irinotecan + Alpelisib; first compound 6.325 µM): 0.385
relative viability (Irinotecan + Alpelisib; first compound 20 µM): 0.161
relative viability (MK-8033 + Lapatinib; first compound 0.02 µM): 0.182
relative viability (MK-8033 + Lapatinib; first compound 0.06325 µM): 0.218
relative viability (MK-8033 + Lapatinib; first compound 0.2 µM): 0.217
relative viability (MK-8033 + Lapatinib; first compound 0.6325 µM): 0.21
relative viability (MK-8033 + Lapatinib; first compound 2 µM): 0.203

NCI-H2228
relative viability (RU-SKI 43 + Phenformin; first compound 0.1 µM): 0.239
relative viability (RU-SKI 43 + Phenformin; first compound 0.3162 µM): 0.407
relative viability (RU-SKI 43 + Phenformin; first compound 1 µM): 0.237
relative viability (RU-SKI 43 + Phenformin; first compound 3.162 µM): 0.329
relative viability (RU-SKI 43 + Phenformin; first compound 10 µM): 0.278
relative viability (Irinotecan + Alpelisib; first compound 0.6325 µM): 0.791
relative viability (Irinotecan + Alpelisib; first compound 2 µM): 0.598
relative viability (Irinotecan + Alpelisib; first compound 6.325 µM): 0.431
relative viability (Irinotecan + Alpelisib; first compound 20 µM): 0.408
relative viability (MK-8033 + Lapatinib; first compound 0.02 µM): 1.34
relative viability (MK-8033 + Lapatinib; first compound 0.06325 µM): 1.08
relative viability (MK-8033 + Lapatinib; first compound 0.2 µM): 0.848
relative viability (MK-8033 + Lapatinib; first compound 0.6325 µM): 1
relative viability (MK-8033 + Lapatinib; first compound 2 µM): 0.98

NCI-H1703
relative viability (Irinotecan + Alpelisib; first compound 0.6325 µM): 0.305
relative viability (Irinotecan + Alpelisib; first compound 2 µM): 0.482
relative viability (Irinotecan + Alpelisib; first compound 6.325 µM): 0.385
relative viability (Irinotecan + Alpelisib; first compound 20 µM): 0.136
relative viability (MK-8033 + Lapatinib; first compound 0.02 µM): 1.04
relative viability (MK-8033 + Lapatinib; first compound 0.06325 µM): 1.04
relative viability (MK-8033 + Lapatinib; first compound 0.2 µM): 0.99
relative viability (MK-8033 + Lapatinib; first compound 0.6325 µM): 0.912
relative viability (MK-8033 + Lapatinib; first compound 2 µM): 1.05

201T
relative viability (RU-SKI 43 + Phenformin; first compound 0.1 µM): 0.48
relative viability (RU-SKI 43 + Phenformin; first compound 0.3162 µM): 0.437
relative viability (RU-SKI 43 + Phenformin; first compound 1 µM): 0.464
relative viability (RU-SKI 43 + Phenformin; first compound 3.162 µM): 0.443
relative viability (RU-SKI 43 + Phenformin; first compound 10 µM): 0.442
relative viability (RU-SKI 43 + Decitabine; first compound 0.1 µM): 0.838
relative viability (RU-SKI 43 + Decitabine; first compound 0.3162 µM): 0.824
relative viability (RU-SKI 43 + Decitabine; first compound 1 µM): 0.854
relative viability (RU-SKI 43 + Decitabine; first compound 3.162 µM): 0.856
relative viability (RU-SKI 43 + Decitabine; first compound 10 µM): 0.831
relative viability (Irinotecan + Alpelisib; first compound 2 µM): 0.87
relative viability (Irinotecan + Alpelisib; first compound 6.325 µM): 0.465
relative viability (Irinotecan + Alpelisib; first compound 20 µM): 0.331
relative viability (MK-8033 + Lapatinib; first compound 0.02 µM): 1.03
relative viability (MK-8033 + Lapatinib; first compound 0.06325 µM): 0.906
relative viability (MK-8033 + Lapatinib; first compound 0.2 µM): 0.995
relative viability (MK-8033 + Lapatinib; first compound 0.6325 µM): 1.07
relative viability (MK-8033 + Lapatinib; first compound 2 µM): 1.07

NCI-H1915
relative viability (RU-SKI 43 + Phenformin; first compound 0.1 µM): 0.391
relative viability (RU-SKI 43 + Phenformin; first compound 0.3162 µM): 0.445
relative viability (RU-SKI 43 + Phenformin; first compound 1 µM): 0.365
relative viability (RU-SKI 43 + Phenformin; first compound 3.162 µM): 0.376
relative viability (RU-SKI 43 + Phenformin; first compound 10 µM): 0.361
relative viability (RU-SKI 43 + Decitabine; first compound 0.1 µM): 0.272
relative viability (RU-SKI 43 + Decitabine; first compound 0.3162 µM): 0.257
relative viability (RU-SKI 43 + Decitabine; first compound 1 µM): 0.285
relative viability (RU-SKI 43 + Decitabine; first compound 3.162 µM): 0.25
relative viability (RU-SKI 43 + Decitabine; first compound 10 µM): 0.255
relative viability (Irinotecan + Alpelisib; first compound 0.6325 µM): 0.3
relative viability (Irinotecan + Alpelisib; first compound 2 µM): 0.217
relative viability (Irinotecan + Alpelisib; first compound 6.325 µM): 0.164
relative viability (Irinotecan + Alpelisib; first compound 20 µM): 0.155
relative viability (MK-8033 + Lapatinib; first compound 0.02 µM): 0.935
relative viability (MK-8033 + Lapatinib; first compound 0.06325 µM): 0.85
relative viability (MK-8033 + Lapatinib; first compound 0.2 µM): 0.992
relative viability (MK-8033 + Lapatinib; first compound 0.6325 µM): 1
relative viability (MK-8033 + Lapatinib; first compound 2 µM): 0.948

NCI-H358
relative viability (RU-SKI 43 + Phenformin; first compound 0.1 µM): 0.305
relative viability (RU-SKI 43 + Phenformin; first compound 0.3162 µM): 0.432
relative viability (RU-SKI 43 + Phenformin; first compound 1 µM): 0.402
relative viability (RU-SKI 43 + Phenformin; first compound 3.162 µM): 0.436
relative viability (RU-SKI 43 + Phenformin; first compound 10 µM): 0.271
relative viability (RU-SKI 43 + Decitabine; first compound 0.1 µM): 0.199
relative viability (RU-SKI 43 + Decitabine; first compound 0.3162 µM): 0.184
relative viability (RU-SKI 43 + Decitabine; first compound 1 µM): 0.248
relative viability (RU-SKI 43 + Decitabine; first compound 3.162 µM): 0.217
relative viability (RU-SKI 43 + Decitabine; first compound 10 µM): 0.19
relative viability (Irinotecan + Alpelisib; first compound 0.6325 µM): 0.628
relative viability (Irinotecan + Alpelisib; first compound 2 µM): 0.561
relative viability (Irinotecan + Alpelisib; first compound 6.325 µM): 0.311
relative viability (Irinotecan + Alpelisib; first compound 20 µM): 0.248
relative viability (MK-8033 + Lapatinib; first compound 0.02 µM): 0.427
relative viability (MK-8033 + Lapatinib; first compound 0.06325 µM): 0.317
relative viability (MK-8033 + Lapatinib; first compound 0.2 µM): 0.44
relative viability (MK-8033 + Lapatinib; first compound 0.6325 µM): 0.42
relative viability (MK-8033 + Lapatinib; first compound 2 µM): 0.456

NCI-H2347
relative viability (RU-SKI 43 + Phenformin; first compound 0.1 µM): 0.34
relative viability (RU-SKI 43 + Phenformin; first compound 0.3162 µM): 0.352
relative viability (RU-SKI 43 + Phenformin; first compound 1 µM): 0.544
relative viability (RU-SKI 43 + Phenformin; first compound 3.162 µM): 0.36
relative viability (RU-SKI 43 + Phenformin; first compound 10 µM): 0.383
relative viability (RU-SKI 43 + Decitabine; first compound 0.1 µM): 0.604
relative viability (RU-SKI 43 + Decitabine; first compound 0.3162 µM): 0.542
relative viability (RU-SKI 43 + Decitabine; first compound 1 µM): 0.651
relative viability (RU-SKI 43 + Decitabine; first compound 3.162 µM): 0.617
relative viability (RU-SKI 43 + Decitabine; first compound 10 µM): 0.636
relative viability (Irinotecan + Alpelisib; first compound 0.6325 µM): 0.858
relative viability (Irinotecan + Alpelisib; first compound 2 µM): 0.763
relative viability (Irinotecan + Alpelisib; first compound 6.325 µM): 0.482
relative viability (Irinotecan + Alpelisib; first compound 20 µM): 0.464
relative viability (MK-8033 + Lapatinib; first compound 0.02 µM): 0.872
relative viability (MK-8033 + Lapatinib; first compound 0.06325 µM): 0.858
relative viability (MK-8033 + Lapatinib; first compound 0.2 µM): 0.903
relative viability (MK-8033 + Lapatinib; first compound 0.6325 µM): 0.781
relative viability (MK-8033 + Lapatinib; first compound 2 µM): 0.914
